Like-named read-outs stand apart in the source and are kept apart here.
Key:
[1] = molecular target: T1, GlyT-1c (Homo sapiens, UniProt P48067); experiment: Inhibition of [3H]glycine uptake in QT-6 cells transiently transfected with GlyT-1c; assay type: cell-based; conditions: for selectivity GlyT-1c relative to GlyT-2: comparison of pIC50 at GlyT-1c and GlyT-2 in transfected QT-6 cells
T1 construct: expressed in transfected cells; host or cells: QT-6 quail fibroblast cells (ATCC CRL-1708), transient transfection
T1 sequence (P48067 1-706): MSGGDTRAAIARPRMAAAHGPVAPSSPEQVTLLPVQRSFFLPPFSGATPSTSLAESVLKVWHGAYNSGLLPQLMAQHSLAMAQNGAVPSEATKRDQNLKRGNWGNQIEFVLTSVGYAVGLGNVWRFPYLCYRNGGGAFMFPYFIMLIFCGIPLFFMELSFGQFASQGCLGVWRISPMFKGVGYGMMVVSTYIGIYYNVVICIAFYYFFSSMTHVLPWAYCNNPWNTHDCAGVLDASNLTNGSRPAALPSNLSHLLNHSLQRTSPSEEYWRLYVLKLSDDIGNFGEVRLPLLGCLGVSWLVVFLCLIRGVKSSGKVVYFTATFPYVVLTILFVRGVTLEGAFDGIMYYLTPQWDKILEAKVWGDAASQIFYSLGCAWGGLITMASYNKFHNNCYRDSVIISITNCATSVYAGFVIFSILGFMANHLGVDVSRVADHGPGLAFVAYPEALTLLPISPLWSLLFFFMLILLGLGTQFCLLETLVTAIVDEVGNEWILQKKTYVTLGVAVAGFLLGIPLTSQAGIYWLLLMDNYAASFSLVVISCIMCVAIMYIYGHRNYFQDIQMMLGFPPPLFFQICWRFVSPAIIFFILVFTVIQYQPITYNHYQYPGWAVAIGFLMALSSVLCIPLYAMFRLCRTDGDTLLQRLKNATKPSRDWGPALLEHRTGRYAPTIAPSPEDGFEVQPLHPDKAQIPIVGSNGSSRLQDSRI
Experimental: (§1) This example sets forth methods and materials used for growing and transfecting QT-6 cells.
The human GlyT-1c (hGlyT-1c) clone used contains the sequence of hGlyT-1c [SEQ ID NO:3] from nucleotide position 213 to 2336 cloned into the pRc/CMV vector (Invitrogen) as a Hind III-Xba I fragment as described in Kim et al., supra. The Hind III-Xba fragment of hGlyT-1c from this clone was then subcloned into the pRc/RSV vector. Transfection experiments were performed with GlyT-1c in both the pRc/RSV and pRc/CMV expression vectors.
(§2) The following four day procedure for the tranfections was used:
(§3) On day 1, QT-6 cells were plated at a density of 1×10^6 cells in 10 ml of complete QT-6 medium in 100 mm dishes.
(§4) On day 2, the medium was aspirated and the cells were washed with 10 ml of PBS followed by 10 ml of TBS. The TBS was aspirated, then 1 ml of the DEAE/DNA mix was added to the plate. The plate was swirled in the hood every 5 minutes. After 30 minutes, 8 ml of 80 μM chloroquine in QT-6 medium was added and the culture was incubated for 2.5 hours at 37° C. and 5% CO2. The medium was then aspirated and the cells were washed two times with complete QT-6 medium, then […] complete QT-6 medium was added and the cells were returned to the incubator.
(§5) On day 3, the cells were removed with trypsin/EDTA as described above, and plated into the wells of 96-well assay plates at approximately 2×10^5 cells/well.
(§6) On day 4, glycine transport was assayed as described in Example 2.
(§7) This example illustrates a method for the measurement of glycine uptake by transfected cultured cells.
(§8) Transient GlyT-transfected cells or control ("mock") cells grown in accordance with Example 1 were washed three times with HEPES buffered saline (HBS). The mock cells were treated precisely as the GlyT-transfected cells except that the transfection procedure omitted any cDNA. The cells were incubated 10 minutes at 37° C., after which a solution was added containing 50 nM [^3 H] glycine (17.5 Ci/mmol) and either (a) no potential competitor, (b) 10 mM nonradioactive glycine or (c) a concentration of a candidate drug. […] The cells were then incubated another 20 minutes at 37° C., after which the cells were aspirated and washed three times with ice-cold HBS. The cells were harvested, scintillant was added to the cells, the cells were shaken for 30 minutes, and the radioactivity in the cells was counted using a scintillation counter. Data were compared between the cells contacted or not contacted by a candidate agent, and between cells having GlyT-1 activity versus cells having GlyT-2 activity, depending on the assay being conducted.

[2] = molecular target: T2, GlyT-2 (Rattus norvegicus, UniProt P58295); experiment: Inhibition of [3H]glycine uptake in QT-6 cells transiently transfected with GlyT-2; assay type: cell-based
T2 construct: expressed in transfected cells; host or cells: QT-6 quail fibroblast cells (ATCC CRL-1708), transient transfection
T2 sequence (P58295 1-799): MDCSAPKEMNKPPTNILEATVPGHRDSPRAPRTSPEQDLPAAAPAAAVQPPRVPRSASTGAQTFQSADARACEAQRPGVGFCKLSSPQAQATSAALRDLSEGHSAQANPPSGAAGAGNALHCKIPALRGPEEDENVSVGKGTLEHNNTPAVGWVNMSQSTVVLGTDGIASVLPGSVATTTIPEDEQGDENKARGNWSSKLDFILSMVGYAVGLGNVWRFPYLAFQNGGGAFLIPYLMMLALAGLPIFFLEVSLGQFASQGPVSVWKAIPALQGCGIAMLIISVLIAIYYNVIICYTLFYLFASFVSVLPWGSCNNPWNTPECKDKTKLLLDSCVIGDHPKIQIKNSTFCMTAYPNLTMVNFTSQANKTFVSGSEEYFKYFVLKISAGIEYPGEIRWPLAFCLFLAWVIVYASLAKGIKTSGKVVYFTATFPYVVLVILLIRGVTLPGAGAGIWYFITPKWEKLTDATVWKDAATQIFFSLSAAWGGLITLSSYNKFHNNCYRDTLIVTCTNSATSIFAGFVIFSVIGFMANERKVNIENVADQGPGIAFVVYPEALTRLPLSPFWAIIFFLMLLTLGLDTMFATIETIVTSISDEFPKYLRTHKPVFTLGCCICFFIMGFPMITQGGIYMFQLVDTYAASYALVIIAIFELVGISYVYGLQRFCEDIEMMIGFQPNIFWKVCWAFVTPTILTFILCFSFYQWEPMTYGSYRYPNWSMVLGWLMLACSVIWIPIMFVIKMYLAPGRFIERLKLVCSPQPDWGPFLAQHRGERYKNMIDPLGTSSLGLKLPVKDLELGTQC
Experimental: as §1, §2, §3, §4, §5, §6, §7, §8

[3] = molecular target: glycine site on the NMDA receptor; conditions: read-out: concentration of agonist resulting in about a 50% effect on [3H]MK-801 binding; rat cortex/hippocampus membranes; glutamate 10 μM, 2.5 nM [3H]MK-801, 1 hour room temperature; FIG. 2B
Experimental: In particular, compounds having agonist activity in this assay enhance MK-801 binding; conversely, compounds having antagonist activity inhibit MK-801 binding.
Preparation of membranes for the binding test required application of a series of standard methods. Unless otherwise specified, tissues and homogenates were kept on ice and centrifugations were conducted at 4° C. Homogenizations were conducted with an effort to minimize resulting rise in tissue/homogenate temperature. The membrane preparation included the following steps:
Homogenize tissue in twenty volumes of 0.32 M sucrose/5 mM Tris-Acetate (pH 7.4) with 20 strokes of a glass/teflon homogenizer.
Centrifuge tissue at 1000×g, 10 minutes. Save supernatant. Resuspend pellet in small volume of buffer and homogenize again. Centrifuge the homogenized pellet and combine the supernatant with the previous supernatant.
Centrifuge the combined supernatants at 40,000×g, for 30 minutes. Discard the supernatant. […]
The assay was started by the addition of 2.5 nM [^3 H]MK-801 (23.9 Ci/mmol), which binds to the ion channel associated with NMDA receptors. […] Bound radioactivity was separated from free by filtration, using a TOMTEC harvester. Antagonist activity was indicated by decreasing radioactivity associated with the NMDA receptor with increasing concentration of the tested ligand.

[4] = molecular target: glycine site on the NMDA receptor; experiment: [3H]MK-801 binding test operated to identify antagonists of the NMDA-glycine site; conditions: rat cortex/hippocampus membranes; glutamate 10 μM, glycine 200 nM, 2.5 nM [3H]MK-801, 1 hour room temperature; FIG. 2A; read-out: concentration of antagonist resulting in about a 50% effect on [3H]MK-801 binding
Experimental: Sterner and Calligaro, Soc. Neurosci.
The membrane preparation included the following steps:
1. Sacrifice and decapitate four rats; remove cortices and hippocampi.
3. Centrifuge tissue at 1000×g, 10 minutes. Save supernatant.
4. […] Discard the supernatant.
5. […] Stir the suspension on ice for one hour.
6. […] Leave on ice for 20 minutes.
The final volume of the assay was 200 μl.

[5] = test system: NMDA receptor; experiment: Calcium flux (45Ca++ accumulation) in primary neuronal cortical cell cultures; assay type: cell-based, rat; conditions: L-689,560 50 μM with NMDA 500 μM; 10 minutes room temperature; FIG. 3
Experimental: A functional ion-flux assay used to measure the effect of compounds identified by the present invention relates to the ability to enhance or inhibit calcium flux through the NMDA receptor. This test is performed on suitable cell cultures that have membrane-bound NMDA receptors and glycine transporters. Such cells include neuronal cells generally, including those of the central nervous system, including brain, and cell lines derived therefrom, and any other cell that has been induced or transfected to express NMDA receptors. Calcium used in such a test is commonly the ^45 Ca isotope, although other calcium measuring techniques can be used as well, such as calcium-associated fluorescence and the like. However the calcium is monitored, calcium flux is enhanced or inhibited as a result of the discrete addition of a compound of the present invention. An advantage of this system is that it allows one to monitor the net effect on NMDA receptor function of a compound that interacts with the glycine site on the NMDA receptor and the glycine transporter.
This example illustrates a protocol for measuring calcium flux in primary neuronal cells, which is an indication of NMDA receptor activation. […]
The tissue was chopped with a scalpel and then triturated with a glass pipet that had been fire polished. […] Cells were counted in a suitable counting chamber. […]

[6] = QT-6 cells transfected with GlyT-1c, 50 nM [3H]glycine, 20 min at 37° C, read-out: Effect Via GlyT-1c, pIC50 (converted)
[7] = QT-6 cells transfected with GlyT-2, 50 nM [3H]glycine, 20 min at 37° C, read-out: Effect Via GlyT-2, pIC50 (converted)

| SMILES | IC50 [1, 6] | selectivity GlyT-1c relative to GlyT-2 [1] | IC50 [1] | IC50 [2] | other results |
| --- | --- | --- | --- | --- | --- |
| Clc1ccc(C(c2ccc(Cl)cc2)n2cc[n+](CC(OCc3ccc(Cl)cc3Cl)c3ccc(Cl)cc3Cl)c2)cc1 (stereo not shown) [ZA] | 0.912 µM | selective for GlyT-1c relative to GlyT-2 | – | – | IC50 [2, 7]: 3.09 µM |
| NCC(=O)O [glycine] | – | – | – | – | EC50 [3]: ~1 µM |
| CN1CCC(=C2c3ccccc3CCc3ccccc32)CC1 [ZF] | 21.4 µM | reverse selectivity | – | – | IC50 [2, 7]: 14.5 µM |
| CC(Cc1ccccc1)NCCC(c1ccccc1)c1ccccc1 (stereo not shown) [ZC] | – | selective for GlyT-1c relative to GlyT-2 | 6.46 µM | 14.1 µM | – |
| CC(C)(C)c1ccc(C(O)CCCN2CCC(C(O)(c3ccccc3)c3ccccc3)CC2)cc1 (stereo not shown) [ZB] | – | selective for GlyT-1c relative to GlyT-2 | 4.27 µM | 17 µM | – |
| CC(NCCC(c1ccccc1)c1ccccc1)c1ccccc1 (stereo not shown) [ZE] | – | selective for GlyT-1c relative to GlyT-2 | 12.9 µM | 20.9 µM | – |
| O=C(Nc1ccccc1)N[C@@H]1C[C@@H](C(=O)O)Nc2cc(Cl)cc(Cl)c21 (relative stereo) [L-689,560] | – | – | – | – | IC50 [4]: ~0.5 µM; blockade of NMDA-caused accumulation of 45Ca++ [5]: blocked |
| CSc1ccc2c(c1)N(CCC1CCCCN1C)c1ccccc1S2 (stereo not shown) [ZD] | 9.55 µM | – | – | – | – |

Reference: patent US5968823A, “Glycine transporter-transfected avian cells and uses thereof” (Allelix Neuroscience Inc., priority 1998, dated 1999)
